Patent US20230234936A1, “COMPOUND FOR TARGETING AND DEGRADING PROTEIN, AND PREPARATION METHOD THEREFOR AND USE THEREOF” (SHANGHAI LEADINGTAC PHARMACEUTICAL CO., LTD., priority 2020, published 2023)
pIC50: −log10 of the molar value.

How the values were obtained:
[1] = target: T1, IRAK4 protein in THP-1 cells (Homo sapiens, UniProt Q9NWZ3); test: Degradation of IRAK4 in THP-1 cells (Western blot); assay type: cell-based; details: 24 hours, compound 1-3000 nM
T1 construct: endogenous in cells; host or cells: THP-1
T1 sequence (Q9NWZ3 1-460): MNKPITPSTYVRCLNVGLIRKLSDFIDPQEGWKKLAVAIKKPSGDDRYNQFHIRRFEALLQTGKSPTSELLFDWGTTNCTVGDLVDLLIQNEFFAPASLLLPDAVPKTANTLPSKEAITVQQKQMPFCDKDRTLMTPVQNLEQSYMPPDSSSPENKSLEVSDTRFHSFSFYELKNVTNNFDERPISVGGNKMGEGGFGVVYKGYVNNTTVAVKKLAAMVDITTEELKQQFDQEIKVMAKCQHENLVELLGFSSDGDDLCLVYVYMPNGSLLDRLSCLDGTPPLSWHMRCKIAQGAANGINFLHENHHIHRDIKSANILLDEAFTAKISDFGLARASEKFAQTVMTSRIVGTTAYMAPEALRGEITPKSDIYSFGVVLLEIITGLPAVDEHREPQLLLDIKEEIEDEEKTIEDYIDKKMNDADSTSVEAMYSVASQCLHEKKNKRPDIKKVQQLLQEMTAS
How it was run: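 THP-1 cells (5×10^5/well) treated 24 h with compound at 1–3000 nM final. IRAK4 in lysates quantified by Western blot, normalized to internal reference and compared with control to give degradation rate; DC50 and Dmax from nonlinear fit of log concentration.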

IRAK4 kinase = target: T2, IRAK4 kinase (Homo sapiens, UniProt Q9NWZ3); test: IRAK4 kinase activity test (KinEASE-STK S1 HTRF kit); assay type: biochemical; details: 2.5 nM kinase, 1 μM biotinylated polypeptide substrate, 7 μM ATP, 37° C. 120 min
T2 sequence (Q9NWZ3 1-460): T1 sequence (Q9NWZ3 1-460)
How it was run: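 Compound in DMSO, serially diluted to 10000–0.038 nM final, incubated with 2.5 nM kinase, 1 μM biotinylated peptide substrate and 7 μM ATP at 37° C for 120 min. Eu-anti-phospho-Ser/Thr antibody plus streptavidin-XL665 stopped the reaction (1 h RT). HTRF 665/620 nm ratio gave % inhibition versus control; IC50 from nonlinear log-concentration fit.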

[2] = system: Interleukin-6 (IL-6) in LPS-induced human PBMC; test: Cytokine secretion of LPS-induced human PBMC, IL-6 AlphaLISA detection; assay type: cell-based; details: inhibition of IL-6, compound 1 hour or 20 hours, then LPS 100 ng/mL 5 hours
Method: Frozen human PBMC (Milestone, PB010C) was resuspended to RPMI 1640 medium (Gibco, A1049101) after resuscitation, supplemented with 10% fetal bovine serum (Gibco, 10099141), 100 U/mL penicillin and 100 μg/mL streptomycin (Gibco, 15140122). On the same day, 150 μL of PBMC was spread in each well of a 96-well transparent cell plate (Labserv, 310109008), so that the cell density was 2×10^5 cells/well. Then 50 μL diluted compound solution was added to the corresponding cell-covered wells to make the final concentration of the compound in the range of 0.026-10000 nM. The final concentration of DMSO was 0.25%. After the drug-treated cell plate was cultured at 37° C. for 1 hour or 20 hours in a 5% CO2 incubator, 10 μL LPS (0111:B4) (Sigma, L4391) was added with a final concentration of 100 ng/mL. The cell plate was again placed in a 5% CO2 incubator at 37° C. for 5 hours, centrifuged at 2000 rpm for 10 minutes, and 100 μL cell supernatant was taken from each well and transferred to a new 96-well transparent cell plate for cytokine concentration test, which was frozen at −80° C. to be tested.
The concentration of IL-6 in the supernatant of LPS-induced human PBMC cells was determined using interleukin-6 (IL-6) AlphaLISA detection kit (PerkinElmer, AL223 C).
According to the product instructions, IL-6 standard solutions with different concentrations were prepared in the concentration range of […]. 2 μL of IL-6 standard solution at various concentrations and the cell supernatant sample to be tested were taken, respectively added to white 384 well plates (PerkinElmer, 6007299), then a mixed solution of 8 μL of 5× anti-IL-6 receptor beads (final concentration: 10 μg/mL) and biotin-labeled anti-IL-6 antibody (final concentration 1 nM) was added to each well, and incubated at 23° C. for 60 minutes. Finally, 10 μL of 2× streptavidin-labeled donor beads (final concentration: 40 μg/mL) were added to each well and incubated at 23° C. for 30 minutes in the absent of light. After the incubation, the AlphaLISA signal value was determined in the AlphaScreen standard setting mode on the microplate reader EnVision(PerkinElmer, 2105). The standard curve was drawn by the AlphaLISA signal value of each concentration IL-6 standard solution, and then based on the corresponding concentration on the standard curve for the AlphaLISA signal value of the sample to be tested, the IL-6 concentration of each cell lysis supernatant was determined. Compared with the IL-6 concentration of the control group, the inhibition rate of the compound at each concentration was calculated, and then IC50 value of the compound was calculated by fitting the nonlinear curve with the logarithmic concentration-inhibition rate by GraphPad Prism 7.

SMILES	DC50 [1] [nM]	Dmax [1] [%]	pIC50 (IRAK4 kinase)	pIC50 [2]
COc1cc2nn(C3CCN(CCN4CCC5(CC4)CCN(C(=O)c4ccc(OC)c(N6CCC(=O)NC6=O)c4)CC5)CC3)cc2cc1NC(=O)c1cccc(C(F)(F)F)n1 [Example 1, N-(2-(1-(2-(9-(3-(2,4-dioxotetrahydropyrimidin-1 (2H)-yl)-4-methoxybenzoyl)-3,9-diazaspiro[5.5]undec-3-yl)ethyl)piperidin-4-yl)-6-methoxy-2H-indazol-5-yl)-6-(trifluoromethyl)-2-pyridinecarboxamide]	3	94.6	8.60	8.31
COc1cc2nn(C3CCN(CC4CCC5(CC4)CCN(C(=O)c4ccc(Cl)c(N6CCC(=O)NC6=O)c4)CC5)CC3)cc2cc1NC(=O)c1cccc(C(F)(F)F)n1 [Example 32]	5.1	96.9	7.55	8.01
COc1cc2nn([C@H]3CC[C@H](CN(C)CCC4CCN(C(=O)c5ccc(Cl)c(N6CCC(=O)NC6=O)c5)CC4)CC3)cc2cc1NC(=O)c1cccc(C(F)(F)F)n1 [Example 49, N-(2-((1r,4r)-4-(((2-(1-(4-chloro-3-(2,4-dioxotetrahydro-pyrimidin-1 (2H)-yl)benzoyl)piperidin-4-yl)ethyl) (methyl)amino)methyl)cyclohexyl)-6-methoxy-2H-inda-zol-5-yl)-6-(tri-fluoromethyl) pyridinecarbox-amide]	1.8	99.2	8.47	8.43
COc1cc2nn([C@H]3CC[C@H](CCN4CCC5(CC4)CCN(C(=O)c4ccc(Cl)c(N6CCC(=O)NC6=O)c4)CC5)CC3)cc2cc1NC(=O)c1cccc(C(F)(F)F)n1 [Example 54, N-(2-((1r,4r)-4-(2-(9-(4-chloro-3-(2,4-dioxo-tetrahydropyrim-idin-1 (2H)-yl)benzoyl)-3,9-diazaspiro[5.5]undec-3-yl)ethyl)cyclohexyl)-6-methoxy-2H-inda-zol-5-yl)-6-(tri-fluoromethyl) pyridinecarbox-amide]	1.4	98.9	8.12	8.59
CN(CCC1CCN(C(=O)c2ccc(Cl)c(N3CCC(=O)NC3=O)c2)CC1)C[C@H]1CC[C@H](n2cc3cc(NC(=O)c4cccc(C(F)(F)F)n4)c(C(C)(C)O)cc3n2)CC1 [Example 55, N-(2-((1r,4r)-4-(((2-(1-(4-chloro-3-(2,4-dioxotetrahydro-pyrimidin-1 (2H)-yl)benzoyl)piperidin-4-yl)ethyl) (methyl)amino)methyl)cyclohexyl)-6-(2-hydroxyprop-2-yl)-2H-indazol-5-yl)-6-(trifluoro-methyl) pyridinecarbox-amide]	2.7	98.1	7.97	9.10
COc1cc2nn([C@H]3CC[C@H](N(C)C4CCC5(CC4)CCN(C(=O)c4ccc(Cl)c(N6CCC(=O)NC6=O)c4)CC5)CC3)cc2cc1NC(=O)c1cccc(C(F)(F)F)n1 [Example 56]	3	97	8.44	8.49

The next lines start with results.

DC50 [1] [nM]	Dmax [1] [%]	pIC50 (IRAK4 kinase)	SMILES	pIC50 [2]
0.8	99.4	7.79	CC(C)(O)c1cc2nn(C3CCN(CCC4CCC5(CC4)CCN(C(=O)c4ccc(Cl)c(N6CCC(=O)NC6=O)c4)CC5)CC3)cc2cc1NC(=O)c1cccc(C(F)(F)F)n1 [Example 28, N-(2-(1-(2-(3-(4-chloro-3-(2,4-dioxotetrahydro-pyrimidin-1 (2H)-yl)benzoyl)-3-azaspiro [5.5]undec-9-yl)ethyl)piperidin-4-yl)-6-(2-hydroxyprop-2-yl)-2H-indazol-5-yl)-6-(trifluoro-methyl) pyridinecarbox-amide]	8.33
2.9	97.7	7.55	CC(C)(O)c1cc2nn(C3CCN(CC4CCC5(CC4)CCN(C(=O)c4ccc(F)c(C6CCC(=O)NC6=O)c4)CC5)CC3)cc2cc1NC(=O)c1cccc(C(F)(F)F)n1 (stereo not drawn) [Example 41, N-(2-(1-((3-(3-(2,6-dioxopiperidin-3-yl)-4-fluoro-benzoyl)-3-azaspiro [5.5]undec-9-yl)methyl)piperidin-4-yl)-6-(2-hydroxyprop-2-yl)-2H-inda-zol-5-yl)-6-(triflu-oromethyl) pyridinecarbox-amide]	8.29
5.9	96.3	8.20	COc1cc2nn([C@H]3CC[C@H](CN(C)C4CCC5(CC4)CCN(C(=O)c4ccc(Cl)c(N6CCC(=O)NC6=O)c4)CC5)CC3)cc2cc1NC(=O)c1cccc(C(F)(F)F)n1 [Example 53, N-(2-((1r,4r)-4-(((3-(4-chloo-3-(2,4-dioxotetrahydro-pyrimidin-1 (2H)-yl)benzoyl)-3-azaspiro [5.5]undec-9-yl) (methyl)amino)methyl)cyclohexyl)-6-methoxy-2H-inda-zol-5-yl)-6-(triflu-oromethyl) pyridinecarbox-amide]	8.55
